Test results: patent US5952294A, “Peptidyl prodrugs and methods of making and using the same” (University of Pittsburgh of the Commonwealth System of …, priority 1996, dated 1999)
Values after ≈ are worked out from the molar mass of the structure shown.

How the values were obtained:
[1] = Release of ara-C from prodrugs (cyclization) in CD3OD or D2O monitored by 1H NMR; format: physicochemical; settings: for Half-life (hours) for release of ara-C, t1/2: 22° C., 1H NMR
Method: The stability of the ara-C prodrug compounds 10, 15, 17 and 19, prepared according to Example 1, in various reaction media was investigated by NMR and HPLC analyses. The ^1 H NMR studies of the cyclization process were performed on a 4 mg/ml solution of prodrug in CD3 OD or D2 O. Sodium acetate (2 mg) or acetic acid (2 microliters) were added neat to the samples to control the pH. The spectra were collected in appropriate time intervals, and the ratio of prodrug to drug was determined by comparing the integration of the H-C (6) on the nucleoside of prodrug and ara-C.

[2] = Release of ara-C from prodrugs in bovine plasma by HPLC; format: in vitro ADME; settings: pH 7.4, 22° C.
Method: (§1) HPLC studies of the cyclization process in plasma were performed on a 4 mg/ml solution of prodrug in plasma. At appropriate time intervals, 25 microliter aliquots were removed and 0.20 ml of CH3 CN was added to precipitate the protein. After centrifugation, about 25 microliters of clear supernatant liquid was injected directly into the HPLC port. The HPLC analysis was performed with a C-18 reverse phase column using an H2 O/CH3 CN (1:1) eluent and the UV detector was set at 250 nm. The relative concentration of ara-C was determined by the relative peak areas. […] The disappearance of characteristic signals of the prodrugs was accompanied by the appearance of signals of ara-C and the corresponding heterocycles. […] FIGS. 6 through 8 plot the percent concentration of prodrug over time. Table 1 below provides the half life (in hours) for ara-C release of prodrugs 10, 15, 17 and 19 as determined by NMR and HPLC analysis.

[3] = Release of ara-C from prodrugs in human plasma by HPLC; format: in vitro ADME; settings: pH 7.4, 22° C.
Method: as §1

[4] = Stability in bovine or human plasma by HPLC (plasma not distinguished); format: in vitro ADME; settings: for Cyclization / stability in plasma: bovine or human plasma, HPLC
Method: as §1
The stability of these compounds in bovine and human plasma was determined by HPLC analysis (Entry 5 and 6 in Table 1).

[5] = test system: Murine L-1210 leukemia cells; test: L-1210 cell line growth inhibition assay; format: cell-based
Method: The antiproliferation activity of compounds 10, 15, 17 and 19, as compared to ara-C, was tested in an L-1210 cell line growth inhibition assay using various concentrations and continuous exposure. Cell numbers were determined 72 hours after initial drug exposure. Murine L-1210 leukemia cells were grown in suspension using Dulbecco's medium (Gibco/BRL) supplemented with 10% fetal bovine serum (FBS, HyClone), […] of L-glutamine, 100 U/ml penicillin G sodium, and 100 μg/m1 streptomycin (Gibco/BRL). Cells were grown in a humidified incubator as 37° C. under an atmosphere of 95% air and 5% CO2. Cells were routinely passaged at a 1:5 ratio and found to be free of mycoplasma contamination.

[6] = test system: human promyelocytic leukemia HL-60 cells; test: Induction of apoptosis (morphology) in HL-60 cells; format: cell-based; settings: for Maximum percentage of cells exhibiting frank apoptotic morphology: FIG. 9; for Appearance of apoptotic bodies / increase in apoptosis: 24 hours exposure, about 10 micromols
Method: (§2) The ability of the prodrug compounds to kill human tumor cells was tested, specifically their ability to induce apoptosis in human promyelocytic leukemia HL-60 cells. These cells are known to undergo apoptosis following exposure to ara-C. The ability of the prodrugs to cause internucleosomal DNA fragmentation, a characteristic feature of apoptosis in HL-60 cells, was also investigated. The HL-60 were cultured in essentially the same manner as the L-1210 cells, only using Iscoue's modification for the medium. Internucleosomal DNA fragmentation was determined as follows. Following the indicated drug treatments, aliquots of cells (1×10^6) were pelleted by centrifugation at 100×g for 5 minutes, washed with PBS, solubilized with 20 microliters of lysis buffer (10 mM EDTA, 0.5% sarkosyl, 1 mg/ml proteinase K, 50 mM Tris, pH8), and incubated at 50° C. for 1 hour. After incubation, RNaseA (Boehringer Mannheim) was added to a final concentration of 0.33 mg/ml and incubated for an additional hour at 37° C. The lysate was loaded into dry wells of a 1.8% agarose gel, the wells were sealed with low melting point agarose, and the DNA was electrophoresed using Tris-phosphate-EDTA (TPE) running buffer. After electrophoresis, the DNA was stained by immersion of the gel in water containing 1 μg/ml ethidium bromide (Sigma). The DNA was visualized and photographed using an ultraviolet transilluminator.
The formation of apoptotic bodies occurred within a maximal halftime of 4 hours and there was no noticeable difference in the kinetics of apoptosis among ara-C, 10, 15 and 17.

[7] = test system: human promyelocytic leukemia HL-60 cells; test: Internucleosomal DNA fragmentation in HL-60 cells; format: cell-based
Method: as §2, with “These cells are known to undergo apoptosis following exposure to ara-C.” left out
DNA fragmentation of the compounds was tested.

[8] = total; cited from earlier work
[9] = continuous exposure, cell numbers 72 hours after initial drug exposure
[10] = Mus musculus, L1210, continuous exposure, cell numbers 72 hours after initial drug exposure

Half-life (hours) for release of ara-C, t1/2 ([1]; CD3OD) | Half-life (hours) for release of ara-C, t1/2 ([1]; CD3OD, HOAc) | Half-life (hours) for release of ara-C, t1/2 ([1]; CD3OD, NaOAc) | Half-life (hours) for release of ara-C, t1/2 [2] | Half-life (hours) for release of ara-C, t1/2 [3] | Cyclization / stability in plasma [4] | L-1210 Cell Growth Inhibition IC50 [5, 9] | L-1210 Cell Growth Inhibition IC90 [5, 9] | Compound | IC50 and IC90 values compared with ara-C control ([5]; L-1210 cells) | Maximal halftime of formation of apoptotic bodies [6] | Maximum percentage of cells exhibiting frank apoptotic morphology [6] | Appearance of apoptotic bodies / increase in apoptosis [6] | further results
> 1000 h | > 1000 h | 1.3 h | 0.5 h | 0.4 h | cyclize readily | 1.1 ng/mL | 3.4 ng/mL | Aib-Aib-ara-C hydrochloride [Compound 15] | essentially identical to the ara-C control | ≤ 4 h | approximately 25% |  | 
360 h | 860 h | 1.4 h | 0.4 h | 0.3 h | cyclize readily | 1.0 ng/mL | 3.4 ng/mL | Glc-Aib-ara-C [Compound 17] | essentially identical to the ara-C control | ≤ 4 h | approximately 25% |  | 
> 2000 h | > 2000 h | 800 h | > 10 h | > 10 h | good stability | 600 ng/mL | 1400 ng/mL | CC(C)(N)C(=O)NNC(=O)Nc1ccn([C@@H]2O[C@H](CO)[C@@H](O)[C@@H]2O)c(=O)n1.Cl [Compound 19, Aib-2-Azagly-ara-C hydrochloride] |  |  |  | no obvious increase in apoptosis | Cyclization to release the drug ([1]; in the presence of NaOAc): extremely slow; Cyclization to release the drug ([1]; neutral or acid conditions): did not undergo cyclization; ara-C detected in plasma after 48 hours ([4]; plasma, after 48 hours): No ara-C was detected; Times less toxic than ara-C in L-1210 test ([5]; L-1210 cells, versus ara-C): about 500 times; Apoptotic activity after preincubation ([6]; compound preincubated in serum-free medium for 15 days, FIG. 10): slightly less than ara-C; DNA fragmentation after preincubation ([7]; compound preincubated in serum-free medium for 15 days): DNA ladders similar ara-C
 |  |  |  |  |  |  |  | Nc1ccn([C@@H]2O[C@H](CO)[C@@H](O)[C@@H]2O)c(=O)n1 [ara-C, 1-(β-D-arabinofuranosyl) cytosine, reference compound] |  | ≤ 4 h | approximately 25% | obvious apoptotic bodies | IC50 [5, 10]: 1.5 ng/mL (≈ 0.00617 µM); IC90 [5, 10]: 4.3 ng/mL (≈ 0.0177 µM); Internucleosomal DNA fragmentation ([7]; about 10 micromols, 4 hours): displayed internucleosomal 180-200 base pair DNA fragments; Fraction of dose excreted in the urine within 24 hours [8]: About 80%
42 h | 31 h | 0.3 h | 0.4 h | 0.3 h | cyclize readily | 1.3 ng/mL | 5 ng/mL | CC(C)(NC(=O)[C@@H](N)Cc1ccc(OCc2ccccc2)cc1)C(=O)Nc1ccn([C@@H]2O[C@H](CO)[C@@H](O)[C@@H]2O)c(=O)n1.Cl [Compound 10, Tyr(OBn)-Aib-ara-C hydrochloride] | essentially identical to the ara-C control | ≤ 4 h | approximately 25% |  | Faster cyclization upon change from CD3OD to D2O ([1]; D2O versus CD3OD): about 50%; Half-life (hours) for release of ara-C, t1/2 ([1]; D2O): 21 h
